The Biogen ADME set (Fang et al. 2023)
Converted amounts (≈) assume the structure as drawn.

Settings: for aqueous solubility: pH 6.8

SMILES | MDR1-MDCK efflux ratio | intrinsic clearance, human liver microsomes [mL/min/kg] | intrinsic clearance, rat liver microsomes [mL/min/kg] | aqueous solubility [µg/mL] | fraction unbound, human plasma | fraction unbound, rat plasma
CC(=O)NCC(=O)N1[C@@H]2CC[C@H]1c1ccc(Nc3ncc(C(F)(F)F)c(NC4CCC4)n3)cc12 | 29.1 | 20.8 | 90.9 |  |  | 
N#Cc1cnc2ccccc2c1OCCO |  | 10.4 | 12.7 |  |  | 
CC(C)c1ccc(NC(=O)Cn2cnc3c2c(=O)n(C)c(=O)n3C)cc1 |  | 16.1 | 195 | 12.7 (≈ 35.7 µM) |  | 
Cc1ccc(OCc2noc(-c3ccsc3)n2)cn1 | 0.524 | 56.1 | 204 | 52.7 (≈ 193 µM) |  | 
C=CC(=O)Nc1cccc(Nc2nc(Nc3ccc(Oc4ccnc(C(=O)NC)c4)cc3)ncc2F)c1 | 13.2 | 66.5 | 322 |  | 0.00395 | 
COc1cccc(F)c1NC(=O)N1CCC(N2CC=CC2)CC1 | 8.24 | ≤ 4.74 | 363 |  |  | 
c1cc(Nc2cc(C3CC3)[nH]n2)nc(Nc2ccc3nc[nH]c3c2)n1 | 2.39 | 15.1 | 71.4 |  |  | 
Cc1cc(C)n2nc(C)c(C(=O)NCC3CC3)c2n1 | 0.725 | 46.7 | 106 |  |  | 
O=c1n(CCn2ccnc2)nnn1-c1cccs1 | 0.738 | ≤ 4.74 | 55.6 |  |  | 
COc1ccc(-c2nc(CN3CCC[C@H](O)C3)no2)cc1 | 0.841 | 11.5 | 48 | 36.8 (≈ 127 µM) |  | 
COCCNC(=O)c1nnc2n(c1=O)CCN2c1ccccc1 | 9.52 | ≤ 4.74 | ≤ 10.7 |  |  | 
Nc1ccccc1-c1nc(C2CC2)no1 |  | 322 | 754 |  |  | 
Cc1ccc(C)c(S(=O)(=O)N2CCCN(CCn3cccn3)CC2)c1 | 1.14 | 207 | 2010 | 30.5 (≈ 84.1 µM) |  | 
COc1ccc2c(c1)CCCN(C(=O)NCCc1ccccn1)C2 |  | 174 | 1400 |  |  | 
Cc1cc(C(=O)Nc2c(C)nn(C(C)C)c2C)c2ccc(F)cc2n1 | 8.41 | 6.78 | 40.2 | 50.5 (≈ 148 µM) |  | 
COc1ccc(CN2CC(c3ccncc3)C2)cc1Cn1cccn1 | 6.36 | 10.8 | 397 |  |  | 
O=c1c2cccnc2ncn1Cc1ccc2c(c1)CCCC2 | 0.68 | 25.8 | 711 |  |  | 
N#Cc1c(F)cccc1Oc1cccnc1 | 0.634 | ≤ 4.74 | 30.1 |  |  | 
CNC(=O)Cc1cccc(OCCN2CCCCC2)c1 | 11.8 | ≤ 4.74 | 57.3 |  |  | 
CN1C(=O)COc2cc(NC(=O)C3CC=CC3)ccc21 |  | ≤ 4.74 | 92.7 |  |  | 
COC(=O)c1cc(F)c(C)c(NC(=O)CCCc2ccccn2)c1 | 0.785 | 795 | 1680 | 43 (≈ 130 µM) |  | 
COCCc1nsc(Oc2ccc(C)cc2Br)n1 | 0.578 | 148 | 4590 |  |  | 
COc1ccc(N2N=C(C)/C(=C(\C)Nc3ccc(S(N)(=O)=O)cc3)C2=O)cc1 | 41.1 | 8.92 | 39.3 | 20.9 (≈ 52.1 µM) |  | 
O=C(O)c1c2ccccc2nn1Cc1ccccc1 | 1.62 | ≤ 4.74 | ≤ 10.7 | 37.2 (≈ 147 µM) |  | 
Cc1cc(C(=O)N(C)Cc2ccsc2)no1 | 0.653 | 11 | 241 | 34.1 (≈ 144 µM) |  | 
Nc1n[nH]cc1-c1cc(Cl)ccc1Oc1cc(F)c(S(=O)(=O)Nc2cscn2)cc1Cl | 76.2 | 11.6 | 37.3 | 29.9 (≈ 59.7 µM) | 0.00442 | 0.00827
CCn1nc(CNC(=O)C2CCOCC2)c2ccccc21 | 2.83 | ≤ 4.74 | 112 |  |  | 
CC(C)(C)c1ccc(C(=O)Nc2cn3cc(-n4ccnc4)ccc3n2)cc1 | 2.85 | 60.4 | 25.6 | 2.75 (≈ 7.65 µM) |  | 
